Experimental findings from PMC9894685, “Abscisic acid agonists suitable for optimizing plant water use” (Frontiers in Plant Science, 2023) are described below.

The experiment has as its system Arabidopsis plants. The experiment can be described thus: Foliar administration and thermal imaging of leaf temperature (transpiration), Arabidopsis. In kind it is in vivo, Arabidopsis thaliana.

On to `CCC(=C/C(=O)O)/C=C/C(O)(C(C)C)C1(C#N)CC1` (stereo not drawn) [CCP2], for which the “Efficiency in minimizing transpiration compared to ABA” value (foliar application) is listed as “by an order of magnitude more efficient than ABA”. In addition, the “ABA concentration achieving a temperature increase similar to 10 µM of the CCP” value (one day after application) is on record as “about 100 µM”. Where the note is “single application 100 µM, recorded for 19 days”, the “Activity and persistence of minimized transpiration compared to ABA” value is “more active and persistent than ABA”.
